The values below come from patent US11708391B2, “Rapaglutins, novel inhibitors of GLUT and use thereof” (The Johns Hopkins University, priority 2016, dated 2023).

Assay [1] has as its system glucose transporters. The note with it: DU145; read-out: IC50 (cell line); cited from earlier work.
For assay [2], the system named is glucose transporters. The following applies: SW620; read-out: IC50 (cell line); cited from earlier work.
Assay [3] relates to glucose transporters. The note with it: LNCaP; read-out: IC50 (cell line); cited from earlier work.
The test system of assay [4] is glucose transporters. The assay can be described thus: 2-deoxy-D-[3H] glucose uptake in A549 cells. The note with it: A549 cells. In kind it is cell-based, human. How it is done:
FIGS. 2A-2D. Inhibition of Glucose Transport by A18 and E11. (a) Inhibition of 3-O-methyl¬D-[3H] glucose uptake in A549 cells by A18. (b) Inhibition of 3-O-methyl-D-[3H] glucose uptake in A549 cells by E11. (c) Inhibition of 2-deoxy-D-[3H] glucose uptake in A549 […] cells by A18. (d) Inhibition of 2-deoxy-D-[3H] glucose uptake in A549 cells by E11.
FIGS. 16A-16B. Inhibition of Glucose Transport by A18 and E11. Cytochalasin B (10 μM), A18 (3 μM), E11 (3 μM) and DMSO control were used to treated A549 cells for 10 min (a) or 1 min (b), then glucose uptake in the treated cells was measured at 1, 3, 10 and 30 min after the addition of 2-dexoy-D-[^3H] glucose.
Direct action on glucose transporters was measured by monitoring uptake of 3H-labeled 3-O-methylglucose, which is transported by glucose transporters but not metabolized further, allowing the assessment of initial rate of glucose uptake. […] Initial uptake can also be assessed by measuring the uptake of 3H-labeled 2-deoxy-D-glucose, which gets into the cell through glucose transporters and is phosphorylated by hexokinase but cannot be metabolized further due to the lack of oxygen at the second position.

For assay [5], the system named is glucose transporters. The following applies: CHO-K1; read-out: IC50 (cell line); cited from earlier work.
The subject of assay [6] is glucose transporters. The following applies: RCC4; read-out: IC50 (cell line); cited from earlier work.
Assay [7] has as its system glucose transporters. The note with it: A549; read-out: IC50 (cell line); cited from earlier work.
Assay [8] relates to glucose transporters. The following applies: HL-60; read-out: IC50 (cell line); cited from earlier work.

Structures are written as SMILES. Where two headings read alike, the source gives them in different places. Bounds are passed on as bounds.

Broadly, the IC50 is the concentration needed to halve the response being measured. With `CC(=O)CC(=O)Nc1ccc(Cl)c(C(F)(F)F)c1` [Fasentin], the IC50 in the assay on glucose transporters [1] is ~80 µM.
Regarding `O=C(CCc1ccc(O)cc1)c1c(O)cc(O)cc1O` [Phloretin], the half-inhibitory concentration (IC50) with glucose transporters [2] is > 10 µM.
Regarding `CC(CN1C(=O)S/C(=C/c2ccc(O)c(C(F)(F)F)c2)C1=O)(CC(F)(F)F)CC(F)(F)F` [Cpd30], the IC50 in the assay with glucose transporters [3] was 2 µM.
In the case of `CCC(C)(C)C(=O)C(=O)N1CCCC[C@H]1C(=O)O[C@H](CCc1ccc(OC)c(OC)c1)c1cccc(OCC(=O)O)c1` [SLF, reference compound], the “antagonism of inhibitory effects of A18 or E11 on 2-deoxy-D-glucose uptake by FKBP ligands” value with glucose transporters [4] is recorded as “significantly impaired the inhibitory activity of E11”.
For the molecule `CCOC(=O)[C@@]12CCCCC/C=C\1N(C(=O)c1cccc3ccccc13)C(=O)[C@H]2CC(=O)N1CCN(C(=O)c2ccco2)CC1` [Compound 11], the concentration for half-maximal inhibition (IC50) in the assay on glucose transporters [5] was 2 µM.
Consider `CC(C)(C)c1ccc(S(=O)(=O)NCc2ccc(C(=O)Nc3cccnc3)cc2)cc1` [STF-31], for which the 50% inhibitory concentration (IC50) in the assay on glucose transporters [6] is ~1.2 µM.
In the case of `O=C(Oc1cccc(F)c1OC(=O)c1cccc(O)c1)c1cccc(O)c1` [WZB117], the IC50 in the assay on glucose transporters [7] is ~0.5 µM.
Turning to `O=c1c(-c2ccc(O)cc2)coc2cc(O)cc(O)c12` [Genistein], the concentration for half-maximal inhibition (IC50) with glucose transporters [8] was ~12 µM.
